In the assay the target is T1, human apelin receptor (Homo sapiens, UniProt P35414).
T1 construct: expressed in transfected cells
T1 sequence (P35414 1-380): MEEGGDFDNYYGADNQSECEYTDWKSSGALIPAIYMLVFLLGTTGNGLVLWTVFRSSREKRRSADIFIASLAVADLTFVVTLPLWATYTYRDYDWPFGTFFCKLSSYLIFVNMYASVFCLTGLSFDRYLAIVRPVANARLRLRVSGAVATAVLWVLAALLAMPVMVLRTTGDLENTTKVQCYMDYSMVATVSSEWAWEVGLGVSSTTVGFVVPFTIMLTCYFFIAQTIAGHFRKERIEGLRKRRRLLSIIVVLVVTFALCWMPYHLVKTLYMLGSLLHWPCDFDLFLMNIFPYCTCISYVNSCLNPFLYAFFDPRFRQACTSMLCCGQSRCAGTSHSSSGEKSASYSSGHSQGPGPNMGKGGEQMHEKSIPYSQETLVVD
Briefly: Determination of agonism on the human apelin receptor by a calcium fluorescence assay (FLIPR). Particulars: HEK293 cells stably transfected with human apelin receptor and Giaq protein, Fluo-4 calcium fluorescence, read-out: EC50 (APJ agonism). Format: cell-based. In short, it runs like this: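 HEK293 cells stably co-expressing human apelin receptor and promiscuous Giaq, loaded 1 h at 37 °C with Fluo-4 (4 μM) in probenecid-containing Hepes buffer, pH 7.4. Compounds, at least 7 concentrations in triplicate, added in FLIPR Tetra; peak calcium fluorescence normalized to 1 μM apelin-13 as 100% to derive EC50.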

As usually defined, the EC50 is the midpoint of the concentration-response curve. As to `CCC(CC)n1c(Cc2cccs2)nc2cc(C(=O)NC(CCO)c3ccsc3)ccc21` (centres unmarked) [Example 212, 1-(1-Ethyl-propyl)-2-thiophen-2-ylmethyl-1H-benzoimidazole-5-carboxylic acid (3-hydroxy-1-thiophen-3-yl-propyl)-amide], the EC50 came out at 9290 nM.

Take `CCC(CC)n1c(Cc2cccs2)nc2cc(C(=O)N[C@@H](CC(C)C)C(=O)NCc3cccs3)ccc21` [Example 222, 1-(1-Ethyl-propyl)-2-thiophen-2-ylmethyl-1H-benzoimidazole-5-carboxylic acid {(S)-3-methyl-1-[(thiophen-2-ylmethyl)-carbamoyl]-butyl}-amide]: the EC50 came out at 3990 nM. In the case of `CC(C)C[C@H](NC(=O)c1ccc2c(c1)nc(Cc1cccs1)n2-c1ccccc1Cl)C(=O)O` [Example 165, (S)-2-{[1-(2-Chloro-phenyl)-2-thiophen-2-ylmethyl-1H-benzoimidazole-5-carbonyl]-amino}-4-methyl-pentanoic acid], the EC50 was found to be 1010 nM. `CCC(CC)C(CC(=O)O)NC(=O)c1ccc2c(c1)nc(Cc1cccs1)n2C(CC)CC` (centres unmarked) [Example 59, 4-Ethyl-3-{[1-(1-ethyl-propyl)-2-thiophen-2-ylmethyl-1H-benzoimidazole-5-carbonyl]-amino}-hexanoic acid]: the EC50 is 576 nM. `CCC[C@@H](CO)NC(=O)c1ccc2c(c1)nc(Cc1cccs1)n2C(CC)CC` [Example 201, 1-(1-Ethyl-propyl)-2-thiophen-2-ylmethyl-1H-benzoimidazole-5-carboxylic acid ((S)-1-hydroxymethyl-butyl)-amide]: the EC50 was found to be 334 nM. Take `CCC(CC)n1c(Cc2cccs2)nc2cc(C(=O)N[C@@H](CC(C)C)C(=O)NCCCN3CCN(Cc4ccccc4)CC3)ccc21` [Example 341, 1-(1-Ethyl-propyl)-2-thiophen-2-ylmethyl-1H-benzoimidazole-5-carboxylic acid {(S)-1-[3-(4-benzyl-piperazin-1-yl)-propylcarbamoyl]-3-methyl-butyl}-amide]: the 50% effective concentration (EC50) turned out to be 918 nM.

Turning to `CCC(CC)n1c(Cc2cccs2)nc2cc(C(=O)N[C@@H](CC(C)C)C(=O)NC[C@@H]3CCCO3)ccc21` [Example 368, 1-(1-Ethyl-propyl)-2-thiophen-2-ylmethyl-1H-benzoimidazole-5-carboxylic acid ((S)-3-methyl-1-{[(S)-1-(tetrahydro-furan-2-yl)methyl]-carbamoyl}-butyl)-amide], the EC50 came to 1880 nM.

For the molecule `CC(C)C[C@H](NC(=O)c1ccc2c(c1)nc(Cc1ccco1)n2C1CCCCC1C)C(=O)O` (single isomer, unassigned) [Example 416], the EC50 came out at 25 nM.

With `CC1CCCCC1n1c(Cc2cccs2)nc2cc(C(=O)N[C@@H](CC3CCCCC3)C(=O)O)ccc21` (single isomer, unassigned) [Example 424], the EC50 amounted to 389 nM. With `CCC(CC)n1c(Cc2cccs2)nc2cc(C(=O)N[C@@H](CC(C)C)C(=O)NCCCN3CCN(c4ccc(OC)cc4)CC3)ccc21` [Example 279, 1-(1-Ethyl-propyl)-2-thiophen-2-ylmethyl-1H-benzoimidazole-5-carboxylic acid ((S)-1-{3-[4-(4-methoxy-phenyl)-piperazin-1-yl]-propylcarbamoyl}-3-methyl-butyl)-amide], the EC50 was determined as 2270 nM.

On to `CCC(CC)n1c(Cc2cccs2)nc2cc(C(=O)NC(C)(CC(C)C)C(=O)O)ccc21` (centres unmarked) [Example 12, 2-{[1-(1-Ethyl-propyl)-2-thiophen-2-ylmethyl-1H-benzoimidazole-5-carbonyl]-amino}-2,4-dimethyl-pentanoic acid], for which the EC50 amounted to 818 nM. `CCC(CC)n1c(Cc2cccs2)nc2cc(C(=O)N[C@@H](CC(C)C)[C@H](O)CC(=O)O)ccc21` [Example 76, (3R,4S)-4-{[1-(1-Ethyl-propyl)-2-thiophen-2-ylmethyl-1H-benzoimidazole-5-carbonyl]-amino}-3-hydroxy-6-methyl-heptanoic acid]: the EC50 is 62 nM. The same measure for `CCC(CC)n1c(Cc2cccs2)nc2cc(C(=O)N[C@@H](CC(C)C)C(=O)N3CCC(COC)CC3)ccc21` [Example 374, 1-(1-Ethyl-propyl)-2-thiophen-2-ylmethyl-1H-benzoimidazole-5-carboxylic acid [(S)-1-(4-methoxymethyl-piperidine-1-carbonyl)-3-methyl-butyl]-amide]: 2180 nM; for `CCC(CC)n1c(Cc2cccs2)nc2cc(C(=O)N[C@@H](CC(C)C)C(=O)N3CCC(O)C3)ccc21` (stereo partly drawn) [Example 407, 1-(1-Ethyl-propyl)-2-thiophen-2-ylmethyl-1H-benzoimidazole-5-carboxylic acid [(S)-1-(3-hydroxy-pyrrolidine-1-carbonyl)-3-methyl-butyl]-amide]: 708 nM; for `CC(C)C[C@H](NC(=O)c1ccc2c(c1)nc(Cc1cccs1)n2C1CCCCC1)C(=O)O` [Example 108, (S)-2-[(1-Cyclohexyl-2-thiophen-2-ylmethyl-1H-benzoimidazole-5-carbonyl)-amino]-4-methyl-pentanoic acid]: 1060 nM. As for `CC(C)C[C@H](NC(=O)c1ccc2c(c1)nc(Cc1ccsc1)n2C1CCCCC1C)C(=O)O` (stereo partly drawn) [Example 139, (S)-4-Methyl-2-{[1-(2-methyl-cyclohexyl)-2-thiophen-3-ylmethyl-1H-benzoimidazole-5-carbonyl]-amino}-pentanoic acid], the EC50 is 285 nM.

As for `CCC(CC)n1c(Cc2cccs2)nc2cc(C(=O)N[C@@H](CC(C)C)C(=O)NCCCOCc3ccccc3)ccc21` [Example 389, 1-(1-Ethyl-propyl)-2-thiophen-2-ylmethyl-1H-benzoimidazole-5-carboxylic acid [(S)-1-(3-benzyloxy-propylcarbamoyl)-3-methyl-butyl]-amide], the concentration for a half-maximal effect (EC50) turned out to be 17100 nM. Turning to `CCC(CC)NC(=O)[C@H](CC(C)C)NC(=O)c1ccc2c(c1)nc(Cc1cccs1)n2C(CC)CC` [Example 226, 1-(1-Ethyl-propyl)-2-thiophen-2-ylmethyl-1H-benzoimidazole-5-carboxylic acid [(S)-1-(1-ethyl-propylcarbamoyl)-3-methyl-butyl]-amide], the EC50 stood at 4870 nM. `CCC(CC)n1c(Cc2ccco2)nc2cc(C(=O)NC(CC(=O)O)C(C)C)ccc21` (centres unmarked) [Example 41, 3-{[1-(1-Ethyl-propyl)-2-furan-2-ylmethyl-1H-benzoimidazole-5-carbonyl]-amino}-4-methyl-pentanoic acid]: the EC50 was found to be 2430 nM. The same measure for `CCC(CC)n1c(Cc2cccs2)nc2cc(C(=O)N[C@@H](CC(C)C)C(=O)NCCCN3CC(C)CC(C)C3)ccc21` (stereo partly drawn) [Example 332, 1-(1-Ethyl-propyl)-2-thiophen-2-ylmethyl-1H-benzoimidazole-5-carboxylic acid {(S)-1-[3-(3,5-dimethyl-piperidin-1-yl)-propylcarbamoyl]-3-methyl-butyl}-amide]: 692 nM.

As for `CCC(CC)n1c(Cc2cccs2)nc2cc(C(=O)NC(CCc3ccccc3)C(=O)O)ccc21` (centres unmarked) [Example 28, 2-{[1-(1-Ethyl-propyl)-2-thiophen-2-ylmethyl-1H-benzoimidazole-5-carbonyl]-amino}-4-phenyl-butyric acid], the EC50 stood at 18500 nM.

Turning to `CC(C)C[C@H](NC(=O)c1ccc2c(c1)nc(Cc1cccs1)n2CC1CCCCC1)C(=O)O` [Example 83, (S)-2-[(1-Cyclohexylmethyl-2-thiophen-2-ylmethyl-1H-benzoimidazole-5-carbonyl)-amino]-4-methyl-pentanoic acid], the EC50 turned out to be 18200 nM. For `CCC(CC)n1c(Cc2ccoc2)nc2cc(C(=O)N[C@@H](CC(C)C)C(=O)O)ccc21` [Example 118, (S)-2-{[1-(1-Ethyl-propyl)-2-furan-3-ylmethyl-1H-benzoimidazole-5-carbonyl]-amino}-4-methyl-pentanoic acid], the EC50 was 222 nM. Turning to `CCC(CC)n1c(CC2CCCC2)nc2cc(C(=O)NC(CC(=O)O)c3ccccc3)ccc21` (centres unmarked) [Example 43, 3-{[2-Cyclopentylmethyl-1-(1-ethyl-propyl)-1H-benzoimidazole-5-carbonyl]-amino}-3-phenyl-propionic acid], the EC50 stood at 14500 nM.

For the molecule `CCC(CC)n1c(Cc2cccs2)nc2cc(C(=O)NC(CC3CCC(C)(C)CC3)C(=O)O)ccc21` (single isomer, unassigned) [Example 444], the EC50 worked out at 3910 nM. On to `CC(C)C[C@H](NC(=O)c1ccc2c(c1)nc(Cc1ccco1)n2C1CCCCC1C)C(=O)O` (single isomer, unassigned) [Example 418], for which the EC50 came to 248 nM.

As for `CCCC(CC(=O)O)NC(=O)c1ccc2c(c1)nc(Cc1cccs1)n2[C@@H]1CCCC[C@H]1C` (stereo partly drawn) [Example 55, 3-{[1-((1R,2R)-2-Methyl-cyclohexyl)-2-thiophen-2-ylmethyl-1H-benzoimidazole-5-carbonyl]-amino}-hexanoic acid], the EC50 is 196 nM. The same measure for `CCC(CC)n1c(Cc2cccs2)nc2cc(C(=O)N[C@@H](CC(=O)O)CC(C)C)ccc21` [Example 48, (R)-3-{[1-(1-Ethyl-propyl)-2-thiophen-2-ylmethyl-1H-benzoimidazole-5-carbonyl]-amino}-5-methyl-hexanoic acid]: 4190 nM; for `CC(C)C[C@@H](CC(=O)O)NC(=O)c1ccc2c(c1)nc(Cc1ccco1)n2C1CCCCC1C` (stereo partly drawn) [Example 99, (S)-3-{[2-Furan-2-ylmethyl-1-(2-methyl-cyclohexyl)-1H-benzoimidazole-5-carbonyl]-amino}-5-methyl-hexanoic acid]: 46 nM.

Values taken from patent US9156796B2, “Benzoimidazole-carboxylic acid amide derivatives as APJ receptor modulators” (SANOFI, priority 2013, dated 2015).
